Measured values reported in PubChem BioAssay (NCI).
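Values below derive from 48-hour exposures of cells grown in 96-well plates, with endpoints linearly interpolated between the two concentrations bracketing the appropriate inhibition level. TGI is the concentration that stops growth completely.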

Tests used:
Test in all cases: NCI-60 cell line screen, 48 h
786-0 renal = system: 786-0 renal
A498 renal = system: A498 renal
A549 NSCLC = system: A549 NSCLC
ACHN renal = system: ACHN renal
BT-549 breast = system: BT-549 breast
CAKI-1 renal = system: CAKI-1 renal
CCRF-CEM leukemia = system: CCRF-CEM leukemia
COLO 205 colon = system: COLO 205 colon
DU-145 prostate = system: DU-145 prostate
EKVX NSCLC = system: EKVX NSCLC
HCC-2998 colon = system: HCC-2998 colon
HCT-116 colon = system: HCT-116 colon
HCT-15 colon = system: HCT-15 colon
HL-60(TB) leukemia = system: HL-60(TB) leukemia
HOP-62 NSCLC = system: HOP-62 NSCLC
HOP-92 NSCLC = system: HOP-92 NSCLC
HS 578T breast = system: HS 578T breast
HT29 colon = system: HT29 colon
IGROV1 ovarian = system: IGROV1 ovarian
K-562 leukemia = system: K-562 leukemia
KM12 colon = system: KM12 colon
LOX IMVI melanoma = system: LOX IMVI melanoma
M14 melanoma = system: M14 melanoma
MALME-3M melanoma = system: MALME-3M melanoma
MCF7 breast = system: MCF7 breast
MDA-MB-231 breast = system: MDA-MB-231 breast
MDA-MB-435 = system: MDA-MB-435
MDA-N = system: MDA-N
MOLT-4 leukemia = system: MOLT-4 leukemia
NCI-H226 lung = system: NCI-H226 lung
NCI-H23 lung = system: NCI-H23 lung
NCI-H460 lung = system: NCI-H460 lung
NCI-H522 lung = system: NCI-H522 lung
NCI/ADR-RES ovarian = system: NCI/ADR-RES ovarian
OVCAR-3 ovarian = system: OVCAR-3 ovarian
OVCAR-4 ovarian = system: OVCAR-4 ovarian
OVCAR-5 ovarian = system: OVCAR-5 ovarian
OVCAR-8 ovarian = system: OVCAR-8 ovarian
PC-3 prostate = system: PC-3 prostate
RPMI-8226 leukemia = system: RPMI-8226 leukemia
RXF 393 renal = system: RXF 393 renal
SF-268 CNS = system: SF-268 CNS
SF-295 CNS = system: SF-295 CNS
SF-539 CNS = system: SF-539 CNS
SK-MEL-2 melanoma = system: SK-MEL-2 melanoma
SK-MEL-28 melanoma = system: SK-MEL-28 melanoma
SK-MEL-5 melanoma = system: SK-MEL-5 melanoma
SK-OV-3 ovarian = system: SK-OV-3 ovarian
SN12C renal = system: SN12C renal
SNB-19 CNS = system: SNB-19 CNS
SNB-75 CNS = system: SNB-75 CNS
SR leukemia = system: SR leukemia
SW-620 colon = system: SW-620 colon
T-47D breast = system: T-47D breast
TK-10 renal = system: TK-10 renal
U251 CNS = system: U251 CNS
UACC-257 melanoma = system: UACC-257 melanoma
UACC-62 melanoma = system: UACC-62 melanoma
UO-31 renal = system: UO-31 renal
DLD-1 colon = system: DLD-1 colon
DMS 114 small cell lung = system: DMS 114 small cell lung
DMS 273 small cell lung = system: DMS 273 small cell lung
HOP-18 NSCLC = system: HOP-18 NSCLC
KM20L2 colon = system: KM20L2 colon
LXFL 529 NSCLC = system: LXFL 529 NSCLC
M19-MEL melanoma = system: M19-MEL melanoma
SNB-78 CNS = system: SNB-78 CNS
XF 498 CNS = system: XF 498 CNS

O=C1C2C3C4C1C1C2[C@H](OCc2ccccc2)C3C1[C@H]4OCc1ccccc1 (stereo not given in full)
TGI (786-0 renal): > 100 µM
TGI (A498 renal): > 100 µM
TGI (A549 NSCLC): > 100 µM
TGI (ACHN renal): > 100 µM
TGI (BT-549 breast): > 100 µM
TGI (CAKI-1 renal): > 100 µM
TGI (CCRF-CEM leukemia): > 100 µM
TGI (COLO 205 colon): 82.5 µM
TGI (DU-145 prostate): > 100 µM
TGI (EKVX NSCLC): 89.1 µM
TGI (HCC-2998 colon): > 100 µM
TGI (HCT-116 colon): > 100 µM
TGI (HCT-15 colon): 57.9 µM
TGI (HL-60(TB) leukemia): 50.9 µM
TGI (HOP-62 NSCLC): > 100 µM
TGI (HOP-92 NSCLC): 66.3 µM
TGI (HS 578T breast): 60.4 µM
TGI (HT29 colon): 32.7 µM
TGI (IGROV1 ovarian): > 100 µM
TGI (K-562 leukemia): > 100 µM
TGI (KM12 colon): > 100 µM
TGI (LOX IMVI melanoma): > 100 µM
TGI (M14 melanoma): > 100 µM
TGI (MALME-3M melanoma): > 100 µM
TGI (MCF7 breast): > 100 µM
TGI (MDA-MB-231 breast): > 100 µM
TGI (MDA-MB-435): > 100 µM
TGI (MDA-N): > 100 µM
TGI (MOLT-4 leukemia): > 100 µM
TGI (NCI-H226 lung): > 100 µM
TGI (NCI-H23 lung): > 100 µM
TGI (NCI-H460 lung): > 100 µM
TGI (NCI-H522 lung): 57.9 µM
TGI (NCI/ADR-RES ovarian): 54.8 µM
TGI (OVCAR-3 ovarian): > 100 µM
TGI (OVCAR-4 ovarian): > 100 µM
TGI (OVCAR-5 ovarian): 56 µM
TGI (OVCAR-8 ovarian): > 100 µM
TGI (PC-3 prostate): > 100 µM
TGI (RPMI-8226 leukemia): > 100 µM
TGI (RXF 393 renal): > 100 µM
TGI (SF-268 CNS): > 100 µM
TGI (SF-295 CNS): > 100 µM
TGI (SF-539 CNS): > 100 µM
TGI (SK-MEL-2 melanoma): > 100 µM
TGI (SK-MEL-28 melanoma): > 100 µM
TGI (SK-MEL-5 melanoma): > 100 µM
TGI (SK-OV-3 ovarian): > 100 µM
TGI (SN12C renal): > 100 µM
TGI (SNB-19 CNS): > 100 µM
TGI (SNB-75 CNS): > 100 µM
TGI (SR leukemia): > 100 µM
TGI (SW-620 colon): > 100 µM
TGI (T-47D breast): > 100 µM
TGI (TK-10 renal): > 100 µM
TGI (U251 CNS): > 100 µM
TGI (UACC-257 melanoma): > 100 µM
TGI (UACC-62 melanoma): > 100 µM
TGI (UO-31 renal): > 100 µM

C/C(CN1C(=O)c2ccccc2C1=O)=N\NS(=O)(=O)c1ccc2ccccc2c1
TGI (786-0 renal): > 100 µM
TGI (A498 renal): > 100 µM
TGI (A549 NSCLC): > 100 µM
TGI (ACHN renal): > 100 µM
TGI (CAKI-1 renal): > 100 µM
TGI (CCRF-CEM leukemia): > 100 µM
TGI (COLO 205 colon): > 100 µM
TGI (DLD-1 colon): > 100 µM
TGI (DMS 114 small cell lung): > 100 µM
TGI (DMS 273 small cell lung): > 100 µM
TGI (EKVX NSCLC): > 100 µM
TGI (HCC-2998 colon): > 100 µM
TGI (HCT-116 colon): > 100 µM
TGI (HCT-15 colon): > 100 µM
TGI (HL-60(TB) leukemia): > 100 µM
TGI (HOP-18 NSCLC): > 100 µM
TGI (HOP-62 NSCLC): > 100 µM
TGI (HT29 colon): > 100 µM
TGI (IGROV1 ovarian): > 100 µM
TGI (K-562 leukemia): > 100 µM
TGI (KM12 colon): > 100 µM
TGI (KM20L2 colon): > 100 µM
TGI (LOX IMVI melanoma): > 100 µM
TGI (LXFL 529 NSCLC): > 100 µM
TGI (M14 melanoma): > 100 µM
TGI (M19-MEL melanoma): > 100 µM
TGI (MALME-3M melanoma): > 100 µM
TGI (MOLT-4 leukemia): > 100 µM
TGI (NCI-H226 lung): > 100 µM
TGI (NCI-H23 lung): > 100 µM
TGI (NCI-H460 lung): > 100 µM
TGI (NCI-H522 lung): > 100 µM
TGI (OVCAR-3 ovarian): > 100 µM
TGI (OVCAR-4 ovarian): > 100 µM
TGI (OVCAR-5 ovarian): > 100 µM
TGI (OVCAR-8 ovarian): > 100 µM
TGI (RPMI-8226 leukemia): > 100 µM
TGI (SF-268 CNS): > 100 µM
TGI (SF-295 CNS): > 100 µM
TGI (SF-539 CNS): > 100 µM
TGI (SK-MEL-2 melanoma): > 100 µM
TGI (SK-MEL-28 melanoma): > 100 µM
TGI (SK-MEL-5 melanoma): > 100 µM
TGI (SK-OV-3 ovarian): > 100 µM
TGI (SN12C renal): > 100 µM
TGI (SNB-19 CNS): > 100 µM
TGI (SNB-75 CNS): > 100 µM
TGI (SNB-78 CNS): > 100 µM
TGI (SR leukemia): > 100 µM
TGI (SW-620 colon): > 100 µM
TGI (TK-10 renal): > 100 µM
TGI (U251 CNS): > 100 µM
TGI (UACC-257 melanoma): > 100 µM
TGI (UACC-62 melanoma): > 100 µM
TGI (UO-31 renal): > 100 µM

CC(=O)N1C/C(=C\c2ccccc2)C(=O)/C(=C/c2ccccc2)C1
TGI (786-0 renal): 30.2 µM
TGI (A498 renal): 31.8 µM
TGI (A549 NSCLC): 55.1 µM
TGI (ACHN renal): 32.4 µM
TGI (CAKI-1 renal): 35.5 µM
TGI (CCRF-CEM leukemia): 11.3 µM
TGI (COLO 205 colon): 33.9 µM
TGI (DLD-1 colon): 25.8 µM
TGI (DMS 273 small cell lung): 12.1 µM
TGI (EKVX NSCLC): 51.3 µM
TGI (HCC-2998 colon): 25 µM
TGI (HCT-116 colon): 5.9 µM
TGI (HCT-15 colon): 23.7 µM
TGI (HL-60(TB) leukemia): 4.06 µM
TGI (HOP-18 NSCLC): 32.9 µM
TGI (HOP-62 NSCLC): 39 µM
TGI (HT29 colon): 13.8 µM
TGI (IGROV1 ovarian): 37.4 µM
TGI (K-562 leukemia): 12.8 µM
TGI (KM12 colon): 12.1 µM
TGI (KM20L2 colon): 39.5 µM
TGI (LOX IMVI melanoma): 9.01 µM
TGI (LXFL 529 NSCLC): 21.6 µM
TGI (M14 melanoma): 17.9 µM
TGI (M19-MEL melanoma): 10.7 µM
TGI (MALME-3M melanoma): 40 µM
TGI (MOLT-4 leukemia): 23 µM
TGI (NCI-H226 lung): 35.5 µM
TGI (NCI-H23 lung): 41.3 µM
TGI (NCI-H460 lung): 40.2 µM
TGI (NCI-H522 lung): 27.9 µM
TGI (OVCAR-3 ovarian): 16.4 µM
TGI (OVCAR-4 ovarian): 33.2 µM
TGI (OVCAR-5 ovarian): 35.7 µM
TGI (OVCAR-8 ovarian): 24.4 µM
TGI (RPMI-8226 leukemia): 4.79 µM
TGI (RXF 393 renal): 30.4 µM
TGI (SF-268 CNS): 66.1 µM
TGI (SF-295 CNS): 26.9 µM
TGI (SF-539 CNS): 34.3 µM
TGI (SK-MEL-2 melanoma): 56.6 µM
TGI (SK-MEL-28 melanoma): 27.5 µM
TGI (SK-MEL-5 melanoma): 12.9 µM
TGI (SK-OV-3 ovarian): > 54 µM
TGI (SN12C renal): 28.7 µM
TGI (SNB-19 CNS): 31.5 µM
TGI (SNB-75 CNS): 40.9 µM
TGI (SNB-78 CNS): 53.4 µM
TGI (SR leukemia): 17.5 µM
TGI (SW-620 colon): 8.37 µM
TGI (TK-10 renal): 34.8 µM
TGI (U251 CNS): 29.7 µM
TGI (UACC-257 melanoma): 18.6 µM
TGI (UACC-62 melanoma): 34.2 µM
TGI (UO-31 renal): 34.4 µM
TGI (XF 498 CNS): 49.3 µM
